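Compound exposure: 48 hours, 5 concentrations, 96-well plates. GI50: concentration for 50% inhibition of growth.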 Active and inactive are the calls of the source. No stated cut-off is given here; in the data, active = GI50 up to about 1.1 µM and inactive = higher.
Key:
Test in all cases: DTP human tumour cell line panel, 48 h
[1] = tested on: SNB-19
[2] = tested on: SK-MEL-2
[3] = tested on: SK-MEL-28
[4] = tested on: KM12
[5] = tested on: UO-31
[6] = tested on: LXFL 529
[7] = tested on: SF-268
[8] = tested on: HCC 2998
[9] = tested on: SF-295
[10] = tested on: A549
[11] = tested on: 786-0
[12] = tested on: SW-620
[13] = tested on: HT-29
[14] = tested on: HL-60
[15] = tested on: ACHN
[16] = tested on: CCRF-CEM
[17] = tested on: HCT-116
[18] = tested on: PC-3
[19] = tested on: MDA-MB-435
[20] = tested on: NCI/ADR-RES

Compound | GI50 [1] | GI50 [2] | GI50 [3] | GI50 [4] | GI50 [5] | GI50 [6] | GI50 [7] | GI50 [8] | GI50 [9] | GI50 [10] | GI50 [11] | GI50 [12] | GI50 [13] | GI50 [14] | GI50 [15] | GI50 [16] | GI50 [17] | GI50 [18] | GI50 [19] | GI50 [20]
Brc1cc(C2OCCCO2)ccc1OCc1ccccc1 | 88.7 µM (inactive) | 81.7 µM (inactive) | > 100 µM (inactive) | 33.7 µM (inactive) | 52.4 µM (inactive) | 45.9 µM (inactive) | 76.4 µM (inactive) | 30.3 µM (inactive) | 52.8 µM (inactive) | 64.6 µM (inactive) | 40.4 µM (inactive) | 30.1 µM (inactive) | 17.5 µM (inactive) | 25.2 µM (inactive) | 73.6 µM (inactive) | 41.2 µM (inactive) | – | – | – | –
O=C1C=CC2(CCCCCCC2=O)CC1 (stereo unspecified) | > 100 µM (inactive) | – | > 100 µM (inactive) | > 100 µM (inactive) | > 100 µM (inactive) | > 100 µM (inactive) | > 100 µM (inactive) | > 100 µM (inactive) | > 100 µM (inactive) | > 100 µM (inactive) | > 100 µM (inactive) | > 100 µM (inactive) | > 100 µM (inactive) | > 100 µM (inactive) | > 100 µM (inactive) | > 100 µM (inactive) | > 100 µM (inactive) | – | – | –
O=C(/C=C/c1c(O)ccc2ccccc12)c1ccccc1Cl | 49.8 µM (inactive) | 27.7 µM (inactive) | 23 µM (inactive) | 38.5 µM (inactive) | 49.1 µM (inactive) | 31 µM (inactive) | 29.3 µM (inactive) | > 100 µM (inactive) | 23.2 µM (inactive) | 32.5 µM (inactive) | 60.8 µM (inactive) | 24.2 µM (inactive) | 46.5 µM (inactive) | 11.1 µM (inactive) | 34.3 µM (inactive) | 17.3 µM (inactive) | 21.2 µM (inactive) | – | – | –
CCCCCCCCC(=O)NCCCNCCCNC(=O)CCCCCCCC | 19.1 µM (inactive) | 3.25 µM (inactive) | 12.3 µM (inactive) | 2.01 µM (inactive) | 13.2 µM (inactive) | 3.35 µM (inactive) | 10.2 µM (inactive) | 2.84 µM (inactive) | 5.65 µM (inactive) | 14.3 µM (inactive) | 1.86 µM (inactive) | 2.54 µM (inactive) | 2.92 µM (inactive) | 2.11 µM (inactive) | 5.75 µM (inactive) | 3.28 µM (inactive) | 5.04 µM (inactive) | – | – | –
CN(C)c1ccc(/C=C(/C(=O)O)c2csc(-c3nc(/C(=C\c4ccc(N(C)C)cc4)C(=O)O)cs3)n2)cc1 | – | > 100 µM (inactive) | > 100 µM (inactive) | > 100 µM (inactive) | 60.3 µM (inactive) | 96.4 µM (inactive) | > 100 µM (inactive) | > 100 µM (inactive) | > 100 µM (inactive) | > 100 µM (inactive) | 46.2 µM (inactive) | > 100 µM (inactive) | 44.7 µM (inactive) | 43 µM (inactive) | > 100 µM (inactive) | 16.7 µM (inactive) | > 100 µM (inactive) | – | – | –
O=C1C2CC=CCC2C(=O)C12CCc1ccccc12 (stereo unspecified) | – | – | > 100 µM (inactive) | – | > 100 µM (inactive) | > 100 µM (inactive) | > 100 µM (inactive) | > 100 µM (inactive) | > 100 µM (inactive) | > 100 µM (inactive) | > 100 µM (inactive) | > 100 µM (inactive) | > 100 µM (inactive) | 74.6 µM (inactive) | > 100 µM (inactive) | > 100 µM (inactive) | – | – | – | –
COc1cc(CNc2cnc3ccc(N)cc3n2)cc(OC)c1OC | > 100 µM (inactive) | > 100 µM (inactive) | > 100 µM (inactive) | > 100 µM (inactive) | > 100 µM (inactive) | > 100 µM (inactive) | > 100 µM (inactive) | 72.4 µM (inactive) | > 100 µM (inactive) | > 100 µM (inactive) | > 100 µM (inactive) | 45.1 µM (inactive) | > 100 µM (inactive) | 36.3 µM (inactive) | > 100 µM (inactive) | > 100 µM (inactive) | > 100 µM (inactive) | – | – | –
Cc1nc2nnnn2c2c1C(=O)Nc1ccccc1N2 | > 100 µM (inactive) | > 100 µM (inactive) | > 100 µM (inactive) | > 100 µM (inactive) | > 100 µM (inactive) | > 100 µM (inactive) | > 100 µM (inactive) | > 100 µM (inactive) | > 100 µM (inactive) | 62.1 µM (inactive) | > 100 µM (inactive) | > 100 µM (inactive) | > 100 µM (inactive) | > 100 µM (inactive) | 73.3 µM (inactive) | > 100 µM (inactive) | > 100 µM (inactive) | – | – | –
O=C(O)CCNS(=O)(=O)c1ccc(NC(=O)c2ccccc2)cc1 | > 100 µM (inactive) | > 100 µM (inactive) | > 100 µM (inactive) | > 100 µM (inactive) | > 100 µM (inactive) | > 100 µM (inactive) | > 100 µM (inactive) | > 100 µM (inactive) | > 100 µM (inactive) | > 100 µM (inactive) | > 100 µM (inactive) | > 100 µM (inactive) | > 100 µM (inactive) | > 100 µM (inactive) | > 100 µM (inactive) | > 100 µM (inactive) | – | – | – | –
O=C(Cc1nc2ccccc2s1)NC12CC3CC(CC(C3)C1)C2 | > 100 µM (inactive) | > 100 µM (inactive) | > 100 µM (inactive) | > 100 µM (inactive) | > 100 µM (inactive) | > 100 µM (inactive) | > 100 µM (inactive) | > 100 µM (inactive) | > 100 µM (inactive) | > 100 µM (inactive) | > 100 µM (inactive) | > 100 µM (inactive) | > 100 µM (inactive) | > 100 µM (inactive) | > 100 µM (inactive) | > 100 µM (inactive) | > 100 µM (inactive) | – | – | –
CCc1c(C)[nH]c2c1/C(=N/N=C1\CCCc3[nH]c(C)c(CC)c31)CCC2 | 41.4 µM (inactive) | > 100 µM (inactive) | 16.7 µM (inactive) | 15.7 µM (inactive) | 14.5 µM (inactive) | 13.8 µM (inactive) | 19.3 µM (inactive) | > 100 µM (inactive) | 20.1 µM (inactive) | 27.9 µM (inactive) | > 100 µM (inactive) | 28.5 µM (inactive) | 27.4 µM (inactive) | 11.9 µM (inactive) | 18.6 µM (inactive) | 19.2 µM (inactive) | 16.9 µM (inactive) | – | – | –
Cc1ccc(/N=C2\N=C(N3CC(C)OC(C)C3)c3ccccc32)cc1 (stereo unspecified) | 35 µM (inactive) | 24.4 µM (inactive) | 28.4 µM (inactive) | 22 µM (inactive) | 21.3 µM (inactive) | 18.9 µM (inactive) | 25.9 µM (inactive) | 29.5 µM (inactive) | 29.9 µM (inactive) | 39.9 µM (inactive) | 34.4 µM (inactive) | 33.9 µM (inactive) | 23.7 µM (inactive) | – | 28.6 µM (inactive) | 23.3 µM (inactive) | 20.2 µM (inactive) | – | – | –
Cc1ccc(C)c(NC(=O)CC/C(=N\NC(=O)c2c(O)ccc3ccccc23)C(C)C(=O)c2ccc(O)cc2)c1 (stereo unspecified) | 11.6 µM (inactive) | 24.7 µM (inactive) | 49 µM (inactive) | 51.2 µM (inactive) | 17.9 µM (inactive) | 30.5 µM (inactive) | 17.9 µM (inactive) | 44.6 µM (inactive) | 37.2 µM (inactive) | 65 µM (inactive) | 28.5 µM (inactive) | 41.3 µM (inactive) | 46.9 µM (inactive) | 5.26 µM (inactive) | 25.2 µM (inactive) | 15.2 µM (inactive) | 57.4 µM (inactive) | – | – | –
Cn1c(=O)c2c(nc3n2CCC(=O)N3)n(C)c1=O | > 100 µM (inactive) | > 100 µM (inactive) | > 100 µM (inactive) | > 100 µM (inactive) | > 100 µM (inactive) | > 100 µM (inactive) | > 100 µM (inactive) | – | > 100 µM (inactive) | > 100 µM (inactive) | > 100 µM (inactive) | > 100 µM (inactive) | > 100 µM (inactive) | > 100 µM (inactive) | > 100 µM (inactive) | > 100 µM (inactive) | – | – | – | –
C=C1C(=O)C23C(CC(OC(C)=O)C1[C@@H]2OC(C)=O)C1(C)C(OC(C)=O)CCC(C)(C)C1C[C@@H]3OC(C)=O (stereo partly specified) | 1.86 µM (inactive) | 1.93 µM (inactive) | 1.87 µM (inactive) | 1.91 µM (inactive) | 1.8 µM (inactive) | 1.35 µM (inactive) | 1.56 µM (inactive) | 1.84 µM (inactive) | 1.46 µM (inactive) | 1.68 µM (inactive) | 1.43 µM (inactive) | 1.26 µM (inactive) | 1.01 µM (active) | 0.0771 µM (active) | 1.56 µM (inactive) | – | 1.62 µM (inactive) | – | – | –
CCCCCCCCCCCCSC(=S)c1c(C)[nH]n(-c2ccccc2)c1=O | 12.4 µM (inactive) | – | 7.36 µM (inactive) | – | 13.6 µM (inactive) | 9.12 µM (inactive) | 12.6 µM (inactive) | 5.36 µM (inactive) | 12.5 µM (inactive) | 11.8 µM (inactive) | 15.6 µM (inactive) | 16.4 µM (inactive) | 14.3 µM (inactive) | 8.59 µM (inactive) | 16.9 µM (inactive) | 2.9 µM (inactive) | – | – | – | –
NS(=O)(=O)c1cc2c(cc1Cl)NCNS2(=O)=O [HYDROCHLOROTHIAZIDE] | > 100 µM (inactive) | > 100 µM (inactive) | > 100 µM (inactive) | > 100 µM (inactive) | > 100 µM (inactive) | – | > 100 µM (inactive) | > 100 µM (inactive) | > 100 µM (inactive) | > 100 µM (inactive) | > 100 µM (inactive) | > 100 µM (inactive) | > 100 µM (inactive) | > 100 µM (inactive) | > 100 µM (inactive) | > 100 µM (inactive) | > 100 µM (inactive) | > 100 µM (inactive) | > 100 µM (inactive) | > 100 µM (inactive)

From ChEMBL document CHEMBL1201862, “PubChem BioAssay data set” (2004)
